The source of these data is ChEMBL document CHEMBL1201862, “PubChem BioAssay data set” (2004).

The source made the active and inactive calls.

For assay [1], the target named is G-protein coupled receptor 55 (Homo sapiens, UniProt Q9Y2T6). The assay is described as follows: GPR55 agonists via beta-arrestin recruitment, primary screen, imaging, U2OS cells, beta-arrestin-GFP redistribution (AID 1961). The assay is classed as functional. On the technique in general: Recruitment of arrestin is a read-out of receptor activation apart from second messengers.

The nature of assay [2]: inhibitors of firefly luciferase expression or activity, dose response, H4 neuroglioma cells, luminescence (AID 1990). The assay is classed as functional, cell-based.
Assay [3] in a line: inhibitors of SNCA 5'UTR-driven reporter translation, confirmation, H4 neuroglioma cells, luminescence (AID 1988). Format: functional, cell-based.
The next assay relates to INS1. The assay is described as follows: beta cell apoptosis inhibitors, cytokine rescue, dose response, luminescence, retest (AID 449756).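 Note: cell death triggered by IL-1 beta plus TNF-alpha plus IFN-gamma mixture; protective hits raise ATP signal compared with cytokine alone wells.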 The assay is classed as functional, cell-based. As to conditions: Rattus norvegicus.
Assay [4] in a line: HEK293T cell cytotoxicity, dose response, cytotoxicity control for HIV Vif inhibitor project, cherry-picks (AID 652208). Format: functional, cell-based.
Assay [5] in a line: Luminescence Cell-Based Dose Response HTS to Identify Inhibitors of 5'UTR Stem-Loop Driven Prion Protein mRNA Translation in H4 Neuroglioblastoma Cells. [Related pubchem assays: 1827 (Project Summary), 1813 (Primary HTS)]. Format: functional.
The nature of assay [6]: Counterscreen for activators of the function of SWI/SNF related, matrix associated, actin dependent regulator of chromatin, subfamily a, member 2 (SMARCA2, BRM): Luminescence-based cell-based high throughput dose response assay to identify non-selective compounds using the VP16 reporter assay. Format: functional. (In general: The purpose of a counterscreen is to sort out artefacts and off-target activity.)

For assay [7], the target named is SWI/SNF-related matrix-associated actin-dependent regulator of chromatin subfamily A member 2 (Homo sapiens, UniProt P51531). The assay is described as follows: Luminescence-based cell-based high throughput dose response assay to identify activators of the function of SWI/SNF related, matrix associated, actin dependent regulator of chromatin, subfamily a, member 2 (SMARCA2, BRM). Format: functional.

Assay [8] can be described thus: human group III sPLA2 inhibitors, dose response, biochemical, QFRET, IC50 (AID 743457).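 Note: green fluorescence rise as the enzyme cleaves BODIPY PC-A2 in liposomes; potency for inhibition of the enzyme.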
Assay [9] has as its target Nuclear receptor subfamily 5 group A member 2 (Homo sapiens, UniProt O00482). Format: functional, cell-based.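 Note: HEK293T cells transfected with LRH-1 and a StAR promoter luciferase reporter; potency for inhibitors that lower LRH-1 driven reporter light.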
Assay [10] in a line: StAR promoter reporter inhibition counter-screen, dose response, counter-screen for LRH-1 inverse agonist project, cell-based, luminescence, luciferase reporter (AID 651969). Format: functional.
The target in a further assay is Steroidogenic factor 1 (Homo sapiens, UniProt Q13285). Description: Counterscreen for inverse agonists of the liver receptor homolog-1 (LRH-1; NR5A2): Luminescence-based cell-based high throughput dose response assay to identify inverse agonists of the Steroidogenic Factor 1 Nuclear Receptor (SF1; NR5A1). The assay is classed as functional.
In assay [11] the target is T1, Protein Wnt-3a (Mus musculus, UniProt P27467). Description: Wnt3a-driven reporter signaling inhibition, dose response, selectivity assay for Gli-SUFU antagonist project, Wnt-LIGHT cells, luminescence (AID 651570).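 Note: Wnt-LIGHT reporter cells stimulated with conditioned medium from Wnt3a-producing cells.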 Format: functional. As to conditions: read-out: IC50_Mean.
In assay [12] the target is Matrix metalloproteinase-14 (Homo sapiens, UniProt P50281). The assay is described as follows: Dose Response confirmation of uHTS hits for a small molecule inhibitors of MT1-MMP activation in a fluorescence assay set 1. The assay is classed as functional.
The target of another assay is T2, X-box-binding protein 1 (Homo sapiens, UniProt P17861).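 Note: confirmatory dose-response counter-screen serving a CHOP assay.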
T2 sequence (P17861 whole entry): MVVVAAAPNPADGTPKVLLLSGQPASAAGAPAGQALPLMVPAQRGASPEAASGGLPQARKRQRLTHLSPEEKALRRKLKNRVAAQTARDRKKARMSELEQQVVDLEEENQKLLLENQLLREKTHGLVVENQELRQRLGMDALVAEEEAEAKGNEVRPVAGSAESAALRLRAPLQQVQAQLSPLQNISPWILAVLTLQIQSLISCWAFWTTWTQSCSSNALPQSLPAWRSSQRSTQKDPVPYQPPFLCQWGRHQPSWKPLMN
Format: functional, Cricetulus griseus.

Assay [13] in a line: Fluorescence-based cell-based high throughput dose response assay for inhibitors of the interaction of nucleotide-binding oligomerization domain containing 2 (NOD2) and the receptor-interacting serine-threonine kinase 2 (RIPK2). The assay is classed as functional. As to conditions: Homo sapiens.
The target of the next assay is Beta Lactamase (Pseudomonas aeruginosa, UniProt Q932Y6). The assay is described as follows: beta-lactamase reporter inhibitor potency, dose response, artefact control for NOD2-RIPK2 interaction inhibitor project, BLA reporter cells, FRET fluorescence (AID 651552). Format: functional, cell-based.
Assay [14] concerns the target Heat shock protein HSP 90-alpha (Homo sapiens, UniProt P07900). Format: functional, organism-based.
The target in assay [15] is T3, Microphthalmia-associated transcription factor (Homo sapiens, UniProt O75030).
T3 sequence (O75030 whole entry): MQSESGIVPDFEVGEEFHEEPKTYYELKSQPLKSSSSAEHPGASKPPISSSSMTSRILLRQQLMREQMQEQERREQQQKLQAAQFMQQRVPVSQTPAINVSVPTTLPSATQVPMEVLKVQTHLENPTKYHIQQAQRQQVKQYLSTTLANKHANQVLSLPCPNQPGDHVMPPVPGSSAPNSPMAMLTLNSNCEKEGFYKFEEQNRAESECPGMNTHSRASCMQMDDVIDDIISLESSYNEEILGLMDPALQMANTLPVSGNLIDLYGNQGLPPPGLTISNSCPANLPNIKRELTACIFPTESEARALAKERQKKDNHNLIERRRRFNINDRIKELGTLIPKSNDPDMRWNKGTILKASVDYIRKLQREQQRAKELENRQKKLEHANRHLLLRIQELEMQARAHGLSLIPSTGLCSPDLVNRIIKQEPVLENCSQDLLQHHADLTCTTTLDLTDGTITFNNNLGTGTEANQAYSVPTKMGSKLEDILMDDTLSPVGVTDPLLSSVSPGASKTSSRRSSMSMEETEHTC
The assay is described as follows: TRPM1 promoter luciferase signal decrease, dose response, MITF inhibitor project, cell-based, SK-MEL-5, cherry-picked, set 3 (AID 493073).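 Note: SK-MEL-5 melanoma cells with luciferase driven by the MITF target TRPM1 promoter.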 Format: functional.

The next assay has as its target Beta-galactosidase (Escherichia coli, UniProt Q8VNN2). Description: Dose response counterscreen for EBI2 assay utilizing the enzyme, b-galactosidase. Format: functional.
Assay [16] in a line: Late stage assay provider results from the probe development effort to identify inhibitors of the Plasmodium falciparum M17 Leucine Aminopeptidase (M17LAP): radiolabel-based cell-based dose response assay to identify compounds that inhibit P. falciparum growth in RBCs Set 2. Format: functional.
Assay [17] concerns the target T4, Low molecular weight phosphotyrosine protein phosphatase (Homo sapiens, UniProt P24666).
T4 sequence (P24666 whole entry): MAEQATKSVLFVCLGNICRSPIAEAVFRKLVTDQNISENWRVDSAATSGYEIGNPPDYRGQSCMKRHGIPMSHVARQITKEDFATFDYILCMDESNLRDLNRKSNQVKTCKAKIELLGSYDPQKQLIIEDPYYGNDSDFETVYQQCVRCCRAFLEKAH
The assay is classed as functional. As to conditions: read-out: IC50_Mean.

The target of assay [18] is T4, Low molecular weight phosphotyrosine protein phosphatase. Format: functional. As to conditions: read-out: IC50_Mean. This is another data set of the same source.
In assay [19] the target is T5, Small ubiquitin-related modifier 1 (Homo sapiens, UniProt P63165). The assay is described as follows: inhibitors of SUMO1 partner interactions, dose response, biochemical, FRET (AID 624383). Format: functional. As to conditions: read-out: IC50_Mean.
The target in assay [20] is T5, Small ubiquitin-related modifier 1. The assay is described as follows: inhibitors of SUMO1 peptide binding, dose response, biochemical, fluorescence polarization, uHTS hits (AID 624382). The assay is classed as functional. As to conditions: read-out: IC50_Mean. (In general: Fluorescence polarisation rises when a labelled molecule tumbles more slowly, as on binding a larger partner.)

A short description of assay [21]: NIH/3T3 fibroblast cytotoxicity, dose response, cytotoxicity control for T. cruzi growth inhibitor project, cell-based, cherry-pick samples, set 2 (AID 651817). Format: functional. As to conditions: NIH3T3.
The nature of assay [22]: intracellular Trypanosoma cruzi inhibitors in host cells – cell-based, plate reader, cherry-pick samples, set 3, dose response (AID 651818).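 Note: compounds incubated with infected cells for about four days.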 The assay is classed as functional.
For assay [23], the target named is T1, Protein Wnt-3a. Description: SAR analysis of small molecule antagonists of Gli-SUFU in a Wnt3a luminescent reporter assay. The assay is classed as functional.
Assay [24] can be described thus: T. cruzi intracellular amastigote growth inhibition, dose response, imaging, CA-I/72 strain, bovine embryo skeletal muscle, dry powder (AID 651885). Format: functional, cell-based.
Assay [25] addresses T6, Sentrin-specific protease 1 (Homo sapiens, UniProt Q9P0U3). Description: potency of human SENP1 inhibitors, dose response, biochemical, kinetic FRET (AID 651697). The assay is classed as functional. As to conditions: read-out: IC50_Mean.
For assay [26], the target named is T7, Rac GTPase-activating protein 1 (Homo sapiens, UniProt Q9H0H5).
T7 sequence (Q9H0H5 whole entry): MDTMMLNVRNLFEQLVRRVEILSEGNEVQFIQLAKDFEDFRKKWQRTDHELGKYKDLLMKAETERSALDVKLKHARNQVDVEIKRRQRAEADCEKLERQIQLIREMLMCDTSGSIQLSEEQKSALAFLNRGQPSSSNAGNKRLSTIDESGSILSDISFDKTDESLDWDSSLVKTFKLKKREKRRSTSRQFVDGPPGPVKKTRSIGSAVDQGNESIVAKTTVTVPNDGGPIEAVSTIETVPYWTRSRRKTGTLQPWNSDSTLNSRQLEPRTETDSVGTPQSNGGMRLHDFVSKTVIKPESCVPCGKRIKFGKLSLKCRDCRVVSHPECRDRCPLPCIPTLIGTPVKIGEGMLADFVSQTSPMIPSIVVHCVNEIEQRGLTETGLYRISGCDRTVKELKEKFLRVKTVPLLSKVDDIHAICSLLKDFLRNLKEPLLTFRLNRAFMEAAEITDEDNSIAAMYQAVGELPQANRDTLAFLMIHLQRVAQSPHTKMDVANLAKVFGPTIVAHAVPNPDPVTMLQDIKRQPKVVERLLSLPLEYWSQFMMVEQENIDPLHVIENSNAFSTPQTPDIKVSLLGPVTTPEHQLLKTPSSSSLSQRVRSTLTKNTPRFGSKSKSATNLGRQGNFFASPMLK
Description: MgcRacGAP GTPase-activating activity inhibitors, confirmation, biochemical, ADP Hunter fluorescence, primary and confirmatory (AID 624330). The assay is classed as functional.

The target in a further assay is Large T antigen (Simian virus 40, UniProt P03070). Format: functional, Betapolyomavirus macacae.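 Note: Confirmatory-stage PubChem screen for compounds that inhibit SV40 T antigen.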
The target of assay [27] is T6, Sentrin-specific protease 1. Description: Dose response confirmation of small molecule inhibitors of the catalytic domain of the SUMO protease, SENP1 in a FRET assay. The assay is classed as functional. As to conditions: read-out: IC50_Mean.

T1 sequence (P27467 whole entry): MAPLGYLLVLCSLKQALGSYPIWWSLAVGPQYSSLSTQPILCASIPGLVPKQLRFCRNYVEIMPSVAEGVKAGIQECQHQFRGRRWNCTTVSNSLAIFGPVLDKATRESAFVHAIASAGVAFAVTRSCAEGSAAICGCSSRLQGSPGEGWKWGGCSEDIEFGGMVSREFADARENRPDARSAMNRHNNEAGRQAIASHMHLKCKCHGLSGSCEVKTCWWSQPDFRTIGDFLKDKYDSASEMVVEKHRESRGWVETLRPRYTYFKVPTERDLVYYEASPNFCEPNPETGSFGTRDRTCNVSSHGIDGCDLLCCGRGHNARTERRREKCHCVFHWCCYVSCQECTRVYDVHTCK
T5 sequence (P63165 whole entry): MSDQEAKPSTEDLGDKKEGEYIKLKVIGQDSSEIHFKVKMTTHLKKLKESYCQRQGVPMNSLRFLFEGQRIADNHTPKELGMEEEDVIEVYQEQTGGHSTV
T6 sequence (Q9P0U3 whole entry): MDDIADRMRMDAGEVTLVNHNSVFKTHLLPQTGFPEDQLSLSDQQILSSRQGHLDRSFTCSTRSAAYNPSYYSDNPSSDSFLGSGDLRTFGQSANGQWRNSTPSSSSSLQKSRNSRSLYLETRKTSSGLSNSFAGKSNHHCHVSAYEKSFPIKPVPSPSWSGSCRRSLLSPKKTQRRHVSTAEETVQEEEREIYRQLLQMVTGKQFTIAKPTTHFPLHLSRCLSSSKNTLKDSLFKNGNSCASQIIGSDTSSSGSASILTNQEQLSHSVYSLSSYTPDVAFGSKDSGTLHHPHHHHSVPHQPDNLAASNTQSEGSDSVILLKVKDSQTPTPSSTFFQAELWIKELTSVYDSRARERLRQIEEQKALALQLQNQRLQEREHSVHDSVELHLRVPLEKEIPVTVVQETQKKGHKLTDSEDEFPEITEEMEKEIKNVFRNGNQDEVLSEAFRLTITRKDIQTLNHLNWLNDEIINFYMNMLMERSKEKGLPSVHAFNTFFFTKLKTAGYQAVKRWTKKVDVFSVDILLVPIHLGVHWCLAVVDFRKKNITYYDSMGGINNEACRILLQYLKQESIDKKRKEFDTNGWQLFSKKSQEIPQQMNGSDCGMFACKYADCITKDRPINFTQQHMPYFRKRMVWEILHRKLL
Chain of Beta Lactamase (Q932Y6 whole entry): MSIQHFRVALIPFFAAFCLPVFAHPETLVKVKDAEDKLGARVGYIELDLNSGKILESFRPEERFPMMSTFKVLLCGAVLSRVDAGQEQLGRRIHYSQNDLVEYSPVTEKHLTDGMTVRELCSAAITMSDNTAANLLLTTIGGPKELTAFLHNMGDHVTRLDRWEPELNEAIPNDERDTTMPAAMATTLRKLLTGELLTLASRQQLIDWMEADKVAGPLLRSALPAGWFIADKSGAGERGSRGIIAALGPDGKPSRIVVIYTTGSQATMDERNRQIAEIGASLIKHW
Chain of Beta-galactosidase (Q8VNN2 whole entry): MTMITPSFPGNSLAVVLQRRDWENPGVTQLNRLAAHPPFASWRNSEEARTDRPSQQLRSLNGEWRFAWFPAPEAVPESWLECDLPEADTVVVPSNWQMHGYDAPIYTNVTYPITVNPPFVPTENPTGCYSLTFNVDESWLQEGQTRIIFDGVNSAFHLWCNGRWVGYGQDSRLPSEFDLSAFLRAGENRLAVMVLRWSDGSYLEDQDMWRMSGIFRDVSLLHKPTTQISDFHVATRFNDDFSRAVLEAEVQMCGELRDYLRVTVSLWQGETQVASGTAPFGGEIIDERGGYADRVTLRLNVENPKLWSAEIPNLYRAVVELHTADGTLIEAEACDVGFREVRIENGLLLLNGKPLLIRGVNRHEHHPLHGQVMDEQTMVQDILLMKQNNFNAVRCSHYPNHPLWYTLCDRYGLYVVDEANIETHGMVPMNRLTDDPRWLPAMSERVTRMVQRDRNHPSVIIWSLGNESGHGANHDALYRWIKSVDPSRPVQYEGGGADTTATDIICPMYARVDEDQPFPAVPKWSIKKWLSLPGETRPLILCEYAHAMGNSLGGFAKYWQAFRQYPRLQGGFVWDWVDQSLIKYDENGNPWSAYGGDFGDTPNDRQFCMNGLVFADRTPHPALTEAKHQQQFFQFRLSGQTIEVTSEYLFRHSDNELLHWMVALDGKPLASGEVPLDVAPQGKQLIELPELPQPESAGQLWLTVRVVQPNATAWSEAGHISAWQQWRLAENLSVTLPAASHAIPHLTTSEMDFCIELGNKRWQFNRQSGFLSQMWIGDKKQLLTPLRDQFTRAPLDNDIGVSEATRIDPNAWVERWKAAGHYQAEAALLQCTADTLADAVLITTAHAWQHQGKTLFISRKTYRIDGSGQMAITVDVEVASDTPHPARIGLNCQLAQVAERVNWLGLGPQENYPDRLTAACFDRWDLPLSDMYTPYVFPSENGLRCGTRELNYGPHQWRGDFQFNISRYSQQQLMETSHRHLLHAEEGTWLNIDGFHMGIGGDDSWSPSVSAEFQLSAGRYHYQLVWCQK
Chain of SWI/SNF-related matrix-associated actin-dependent regulator of chromatin subfamily A member 2 (P51531 whole entry): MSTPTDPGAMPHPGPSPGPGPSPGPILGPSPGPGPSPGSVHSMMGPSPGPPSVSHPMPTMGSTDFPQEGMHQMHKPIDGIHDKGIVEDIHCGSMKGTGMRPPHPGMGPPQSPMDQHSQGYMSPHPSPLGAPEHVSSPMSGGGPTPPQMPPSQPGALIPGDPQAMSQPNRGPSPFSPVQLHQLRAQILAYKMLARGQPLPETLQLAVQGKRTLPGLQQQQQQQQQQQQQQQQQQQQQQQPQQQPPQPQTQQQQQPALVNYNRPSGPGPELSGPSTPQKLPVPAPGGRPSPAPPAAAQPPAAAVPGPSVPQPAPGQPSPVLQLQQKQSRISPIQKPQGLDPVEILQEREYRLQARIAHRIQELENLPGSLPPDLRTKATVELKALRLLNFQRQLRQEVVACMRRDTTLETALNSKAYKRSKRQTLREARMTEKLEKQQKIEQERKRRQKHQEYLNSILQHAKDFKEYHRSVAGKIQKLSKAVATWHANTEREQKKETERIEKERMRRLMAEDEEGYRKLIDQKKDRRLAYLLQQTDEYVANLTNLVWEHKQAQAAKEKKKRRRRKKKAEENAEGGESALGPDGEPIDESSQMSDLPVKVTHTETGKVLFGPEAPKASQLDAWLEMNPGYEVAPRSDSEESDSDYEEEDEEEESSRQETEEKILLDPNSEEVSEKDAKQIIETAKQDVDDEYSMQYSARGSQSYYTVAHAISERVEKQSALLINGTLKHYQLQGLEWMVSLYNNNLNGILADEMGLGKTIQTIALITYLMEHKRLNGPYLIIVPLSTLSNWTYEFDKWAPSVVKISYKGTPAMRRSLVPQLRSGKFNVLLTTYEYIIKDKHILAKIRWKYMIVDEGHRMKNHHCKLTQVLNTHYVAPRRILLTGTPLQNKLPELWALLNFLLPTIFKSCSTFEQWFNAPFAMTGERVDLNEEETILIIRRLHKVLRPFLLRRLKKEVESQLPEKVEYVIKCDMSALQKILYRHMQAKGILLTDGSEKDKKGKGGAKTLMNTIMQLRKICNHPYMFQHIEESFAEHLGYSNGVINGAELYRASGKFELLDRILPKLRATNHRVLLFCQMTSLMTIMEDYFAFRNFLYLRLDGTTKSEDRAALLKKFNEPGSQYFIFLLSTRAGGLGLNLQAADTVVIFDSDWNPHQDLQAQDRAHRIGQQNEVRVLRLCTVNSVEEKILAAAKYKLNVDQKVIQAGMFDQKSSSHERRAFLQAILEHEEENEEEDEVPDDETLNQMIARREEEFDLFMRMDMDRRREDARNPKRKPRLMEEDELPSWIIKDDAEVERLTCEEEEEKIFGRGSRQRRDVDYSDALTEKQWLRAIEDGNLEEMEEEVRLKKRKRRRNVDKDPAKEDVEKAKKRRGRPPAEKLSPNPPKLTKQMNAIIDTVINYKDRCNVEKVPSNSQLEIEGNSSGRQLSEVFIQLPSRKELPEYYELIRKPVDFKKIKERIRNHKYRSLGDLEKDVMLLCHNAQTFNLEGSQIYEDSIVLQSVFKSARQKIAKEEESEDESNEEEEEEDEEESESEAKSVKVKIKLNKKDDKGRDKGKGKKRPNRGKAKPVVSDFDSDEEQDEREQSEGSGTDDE
Chain of Nuclear receptor subfamily 5 group A member 2 (O00482 whole entry): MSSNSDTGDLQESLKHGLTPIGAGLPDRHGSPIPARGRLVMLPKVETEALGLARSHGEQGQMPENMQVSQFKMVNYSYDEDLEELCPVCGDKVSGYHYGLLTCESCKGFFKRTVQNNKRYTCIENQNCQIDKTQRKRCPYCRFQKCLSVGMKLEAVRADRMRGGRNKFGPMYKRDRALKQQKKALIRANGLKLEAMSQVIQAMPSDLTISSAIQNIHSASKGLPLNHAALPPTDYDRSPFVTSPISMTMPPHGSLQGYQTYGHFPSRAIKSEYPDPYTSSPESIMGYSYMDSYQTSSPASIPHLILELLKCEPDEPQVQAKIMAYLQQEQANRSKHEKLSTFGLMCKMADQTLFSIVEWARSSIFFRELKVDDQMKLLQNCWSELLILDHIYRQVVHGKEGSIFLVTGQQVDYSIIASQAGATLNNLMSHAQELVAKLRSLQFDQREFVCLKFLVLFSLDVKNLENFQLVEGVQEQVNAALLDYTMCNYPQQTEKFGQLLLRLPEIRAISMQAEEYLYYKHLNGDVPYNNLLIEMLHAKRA
Chain of G-protein coupled receptor 55 (Q9Y2T6 whole entry): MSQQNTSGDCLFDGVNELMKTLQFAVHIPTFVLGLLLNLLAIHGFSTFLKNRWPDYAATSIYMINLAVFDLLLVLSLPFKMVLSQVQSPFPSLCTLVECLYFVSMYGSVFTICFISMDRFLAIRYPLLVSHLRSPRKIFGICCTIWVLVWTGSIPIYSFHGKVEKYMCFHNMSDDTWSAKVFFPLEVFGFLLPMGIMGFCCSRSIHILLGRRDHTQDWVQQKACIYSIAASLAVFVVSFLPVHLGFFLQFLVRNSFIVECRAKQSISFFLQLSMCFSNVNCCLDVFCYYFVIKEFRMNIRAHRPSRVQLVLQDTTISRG

For orientation: EC50 means the concentration giving half of the maximal effect. Usually AC50 stands for the midpoint of the concentration-response curve, whichever way the signal moves. As for `Nc1c(C(=O)Nc2ccc(S(=O)(=O)N3CCCC3)cc2)sc2nc3ccc(OC(F)(F)F)cc3cc12`, the EC50 in [1] was 3.77 µM (active); in assay [2] it was 5.71 µM (inconclusive); in assay [3], 2.05 µM (active); in assay [5], 4.12 µM (active). In addition, the values for the AC50 (in the assay with INS1; in assay [4]) were 3.5 µM (active) and 15.7 µM (active), respectively.

As to `Cc1ccc2nc(O)c3cc(C(=O)N(C)Cc4ccco4)sc3c2c1`, the EC50 in assay [6] and in assay [7] was > 91.2 µM (inactive) in each case.

For the molecule `COc1ccc(NC(=O)NNC(=O)c2ccc3ccccc3c2O)c(OC)c1`, in assay [8], the IC50 is > 122 µM (inactive).

On to `O=C(Nc1ccccc1)c1oc2ccccc2c1NC(=O)C1CC1`, for which the IC50 (in [9]; in assay [10]; at Steroidogenic factor 1) was 35.9 µM (inactive) each time.

On to `C[N+]1=C(/C=C/Nc2ccccc2)C(C)(C)c2ccccc21`, for which the IC50 on Protein Wnt-3a [11] was 50 µM (inactive); in assay [12] it was 17.4 µM (active).

Consider `COc1ccc(C(=O)/C=C/C(=O)N(CC(=O)NC2CCCCC2)Cc2cccs2)c(O)c1`, for which the “Absolute IC50 (XBP1)” value at X-box-binding protein 1 is 10 µM. For the same molecule, the IC50 in [13] was 4.66 µM (active); on Beta Lactamase, 24.7 µM (inactive). Moreover, the AC50 in [14] was 2.98 µM (active); in assay [15], 5.53 µM (active).

Regarding `COc1ccc2cc(C(=O)N3CCN(c4cccc(C)c4C)CC3)[nH]c2c1`, the IC50 at Beta-galactosidase was > 80 µM (inactive).

For `CCCCCCCCCC(=O)NO`, the IC50 in [16] was 27 µM (inactive).

With `Cc1cc(C)c2nc3sc(=Cc4ccc(-c5ccccc5C(=O)O)o4)c(=O)n3c2c1`, the IC50 was 26.5 µM (inactive) in [17], 62.9 µM (inactive) in assay [18], 5.88 µM (active) in assay [19] and > 66.6 µM (inactive) in [20].

For `Cc1ccc(S(=O)(=O)Nc2ccc3c(c2)CC(=O)N([C@H](C)CO)C[C@@H](C)[C@@H](CN(C)Cc2ccc(Cl)c(Cl)c2)O3)cc1`, the AC50 in [21] was 9.47 µM (active); in assay [22] it was 3.29 µM (active).

For `O=C(Nc1cc(N2CCCCC2)ncn1)c1cccc(F)c1`, the IC50 on Protein Wnt-3a [23] was > 21.8 µM (inactive).

On to `C[C@H]1CN([C@@H](C)CO)C(=O)c2cccc(NC(=O)c3ccncc3)c2O[C@@H]1CN(C)Cc1ccc(C(=O)Nc2ccccc2N)cc1`, for which the IC50 in assay [24] is > 20 µM (inactive).

With `NC(=O)N/N=C/c1ccc(N2CCOCC2)s1`, the IC50 is 9.07 µM (active) in assay [25], 40.4 µM (active) in assay [26], 13.8 µM (active) at Large T antigen and 11.1 µM (active) in assay [27].
